The results in this text go back to article PMC11198769, “Enhancement of transcription efficiency by TAR-Tat system increases the functional expression of human olfactory receptors” (PLOS ONE, 2024).

A value given as a limit tells only on which side of the number the result lay.

What all share (test): Comprehensive analysis (screening) of hORs against n-hexanal
Type in all cases: cell-based

The target of one test is T1, OR2W1 (Homo sapiens, UniProt Q9Y3N9).
T1 construct: Lucy tag (N); FLAG (N); Rho tag (N); expressed in transfected cells; host or cells: Flp-In T-REx-293 cells stably expressing RTP1S, Gαolf and Ric8-b
T1 sequence (Q9Y3N9 1-320): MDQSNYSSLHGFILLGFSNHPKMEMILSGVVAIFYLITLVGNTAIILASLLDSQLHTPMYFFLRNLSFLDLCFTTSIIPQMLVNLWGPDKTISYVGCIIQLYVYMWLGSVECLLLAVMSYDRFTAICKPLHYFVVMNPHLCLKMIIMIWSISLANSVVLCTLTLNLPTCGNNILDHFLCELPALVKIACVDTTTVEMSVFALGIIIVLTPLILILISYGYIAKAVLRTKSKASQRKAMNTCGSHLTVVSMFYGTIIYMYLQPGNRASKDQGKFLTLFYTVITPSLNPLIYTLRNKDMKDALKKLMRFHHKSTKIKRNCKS
The conditions noted are these: OR2W1, 500 μM n-hexanal, n = 1. On the procedure:
(§1) Transfection was performed as described in the “hOR assay,” but 12.5 ng of 379 hOR plasmids (hOR/pBApo and hOR/pHEK) was transfected with the 12.5 ng pGlosensor^TM-22F cAMP biosensor plasmid (Promega) in 384 plates per well. After loading the GloSensor cAMP substrate and preincubation, the assay buffer was added (30 μL/well). After 10 min of equilibration, luminescence was measured (L0). Then, 50 mM n-hexanal, which was diluted with 10% DMSO/assay buffer, was added (4.7 μL/well). After 9 min, luminescence was measured (L9min). All the L9min values were subtracted by the L0 value (ΔL).

In a further test the target is T2, OR2Z1 (Homo sapiens, UniProt Q8NG97).
T2 construct: Lucy tag (N); FLAG (N); Rho tag (N); expressed in transfected cells; host or cells: Flp-In T-REx-293 cells stably expressing RTP1S, Gαolf and Ric8-b
T2 sequence (Q8NG97 1-314): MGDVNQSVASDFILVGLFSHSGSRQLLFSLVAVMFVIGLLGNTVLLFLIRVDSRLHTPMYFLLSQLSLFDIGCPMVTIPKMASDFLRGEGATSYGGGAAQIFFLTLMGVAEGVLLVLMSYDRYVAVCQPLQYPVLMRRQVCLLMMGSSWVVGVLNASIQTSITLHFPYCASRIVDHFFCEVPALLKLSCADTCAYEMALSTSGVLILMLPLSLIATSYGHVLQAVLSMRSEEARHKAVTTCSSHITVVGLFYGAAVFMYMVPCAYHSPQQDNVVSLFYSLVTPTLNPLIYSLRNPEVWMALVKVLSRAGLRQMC
The conditions noted are these: OR2Z1, 500 μM n-hexanal, with the TAR-Tat system (hOR/pHEK), n = 1. On the procedure:
as §1

The target in another test is T3, OR4K5 (Homo sapiens, UniProt Q8NGD3).
T3 construct: Lucy tag (N); FLAG (N); Rho tag (N); expressed in transfected cells; host or cells: Flp-In T-REx-293 cells stably expressing RTP1S, Gαolf and Ric8-b
T3 sequence (Q8NGD3 1-323): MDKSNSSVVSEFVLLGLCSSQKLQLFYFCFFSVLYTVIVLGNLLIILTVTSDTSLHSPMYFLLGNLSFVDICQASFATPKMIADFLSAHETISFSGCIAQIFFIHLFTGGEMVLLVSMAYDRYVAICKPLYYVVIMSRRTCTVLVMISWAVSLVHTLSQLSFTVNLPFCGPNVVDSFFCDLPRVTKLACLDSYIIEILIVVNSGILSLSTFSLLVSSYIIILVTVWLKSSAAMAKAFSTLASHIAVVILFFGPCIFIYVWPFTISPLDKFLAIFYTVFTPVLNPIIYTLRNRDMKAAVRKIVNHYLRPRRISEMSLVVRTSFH
The conditions noted are these: OR4K5, 500 μM n-hexanal, with the TAR-Tat system (hOR/pHEK), n = 1. On the procedure:
as §1

A further test concerns the target T4, OR56B1 (Homo sapiens, UniProt Q8NGI3).
T4 construct: Lucy tag (N); expressed in transfected cells; host or cells: Flp-In T-REx-293 cells stably expressing RTP1S, Gαolf and Ric8-b
T4 sequence (Q8NGI3 1-324): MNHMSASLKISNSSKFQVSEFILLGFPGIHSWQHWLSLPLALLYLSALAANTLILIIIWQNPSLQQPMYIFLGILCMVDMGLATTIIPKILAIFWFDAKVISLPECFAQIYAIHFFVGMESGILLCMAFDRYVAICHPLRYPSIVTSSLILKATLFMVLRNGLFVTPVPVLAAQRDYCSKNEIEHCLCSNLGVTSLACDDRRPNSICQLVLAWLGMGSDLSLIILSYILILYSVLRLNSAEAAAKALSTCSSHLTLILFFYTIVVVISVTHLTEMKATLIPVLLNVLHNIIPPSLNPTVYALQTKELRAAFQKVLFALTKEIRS
The conditions noted are these: OR56B1, 500 μM n-hexanal, with the TAR-Tat system (hOR/pHEK), n = 1. On the procedure: as §1

A further test has as its target T5, OR8B4 (Homo sapiens, UniProt Q96RC9).
T5 construct: Lucy tag (N); FLAG (N); Rho tag (N); expressed in transfected cells; host or cells: Flp-In T-REx-293 cells stably expressing RTP1S, Gαolf and Ric8-b
T5 sequence (Q96RC9 1-309): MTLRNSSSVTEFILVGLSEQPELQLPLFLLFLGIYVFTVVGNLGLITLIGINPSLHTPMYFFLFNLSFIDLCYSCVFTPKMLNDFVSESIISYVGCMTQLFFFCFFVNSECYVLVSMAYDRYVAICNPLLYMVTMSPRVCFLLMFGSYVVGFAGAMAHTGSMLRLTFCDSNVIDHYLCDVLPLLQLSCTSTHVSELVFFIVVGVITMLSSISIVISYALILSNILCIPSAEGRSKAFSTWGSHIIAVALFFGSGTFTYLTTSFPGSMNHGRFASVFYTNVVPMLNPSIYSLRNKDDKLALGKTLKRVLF
The conditions noted are these: OR8B4, 500 μM n-hexanal, with the TAR-Tat system (hOR/pHEK), n = 1. On the procedure: as §1

The target of a further test is T6, OR8B8 (Homo sapiens, UniProt Q15620).
T6 construct: Lucy tag (N); FLAG (N); Rho tag (N); expressed in transfected cells; host or cells: Flp-In T-REx-293 cells stably expressing RTP1S, Gαolf and Ric8-b
T6 sequence (Q15620 1-311): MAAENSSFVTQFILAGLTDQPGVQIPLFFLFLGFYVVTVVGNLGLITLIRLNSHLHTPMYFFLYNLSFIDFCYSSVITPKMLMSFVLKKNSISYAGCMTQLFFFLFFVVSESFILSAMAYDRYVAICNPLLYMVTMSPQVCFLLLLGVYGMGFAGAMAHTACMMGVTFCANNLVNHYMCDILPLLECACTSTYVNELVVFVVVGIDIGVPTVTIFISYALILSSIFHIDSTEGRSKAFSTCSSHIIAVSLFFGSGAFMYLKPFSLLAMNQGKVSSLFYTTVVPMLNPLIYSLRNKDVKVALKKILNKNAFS
The conditions noted are these: OR8B8, 500 μM n-hexanal, with the TAR-Tat system (hOR/pHEK), n = 1. The method, then: as §1

For `CCCCCC=O` [n-hexanal], the “response value (ΔL)” value is listed as 9310 at OR2W1 (with the TAR-Tat system (hOR/pHEK)); 3463 at OR2W1 (without the TAR-Tat system (control plasmid)); above 500 on OR2Z1; above 500 at OR4K5; above 500 on OR56B1; above 500 at OR8B4. Moreover, on OR8B8, the “response value (ΔL)” value is listed as above 500.
